# Residues, ends and D or L forms follow the SMILES beside them. *: point of attachment. Myristoyl = CCCCCCCCCCCCCC(=O)*; Lauroyl = CCCCCCCCCCCC(=O)*; Decanoyl = CCCCCCCCCC(=O)*; Octanoyl = CCCCCCCC(=O)*; Hexanoyl = CCCCCC(=O)*
# Experiments:
# Format in all cases: cell-based
# [1] = tested on: Klebsiella pneumonia ATCC 13883; experiment: Antibacterial broth microdilution MIC
# Description: (§1) The antibacterial activity of peptides was evaluated using a standard broth microdilution protocol (Clinical Laboratories Standards Institute (CLSI): M07-A10. Methods for Dilution Antimicrobial Susceptibility Tests for Bacteria that grow aerobically; Approved Standard, Tenth Edition, 2015) with minor modifications as described (Mishra, et al. (2019) Proc. Natl. Acad. Sci., 116:13517-13522). In brief, peptides (10 μL per well) with 2-fold dilutions were made in 96-well polystyrene microplates. Subsequently, the logarithmic phase bacterial cultures (i.e., optical density at 600 nm ˜0.5) were diluted to 0.001 OD and aliquoted to 90 μL per well. The plates were incubated overnight at 37°° C. Bacterial controls were treated with water, and the wells containing only the TSB media were used as blank. Positive controls included the parent peptide LL-37 as well as KR12. Post incubation, the plates were read at 630 nm using ChroMate® 4300 Microplate Reader (Awareness Technology, FL).
# P. aeruginosa PAO1 = tested on: P. aeruginosa PAO1
# Description: as §1
# [2] = tested on: human red blood cells (hRBCs); settings: red cells of human, 1 h
# Description: Hemolytic assays of peptides were performed as described (Lakshmaiah, et al. (2020) Proc. Natl. Acad. Sci., 117:19446-19454). Briefly, human red blood cells (hRBCs) were obtained from UNMC Blood Bank. The cells were washed 3× with isotonic saline (0.9% NaCl) and diluted to 2% (v/v). Peptides at various concentrations were added to the 2% blood cells and incubated at 37° C. for 1 hour. Post-incubation, the plates were spun at 2000 rpm for 10 minutes; aliquots of the supernatant were carefully transferred to a fresh 96-well microplate. The amount of cells lysed is proportional to the hemoglobin released and was measured at 545 nm using a ChroMate® microplate reader (Awareness Technology, FL). The percent lysis was calculated by assuming 100% release when human blood cells were treated with 1% Triton™ X-100, and 0% release when incubated with PBS. The peptide concentration that caused 50% lysis of hRBCs is defined as HC50. The cell selectivity index (CSI) was calculated as the ratio between HC50 and the MIC of the corresponding peptide against MRSA.
# S. aureus USA300 LAC = settings: USA300
# Description: as §1
# (§2) To study the influence of medium conditions on the antimicrobial activity of peptides against S. aureus USA300, different pH, sodium chloride (NaCl), human sera were included into the antibacterial assays. Control experiments in TSB without any additions (pH 7.4) were set up in the same manner. In addition, antimicrobial activities of human LL-37, KR12, and C10-KR8d were compared in 10%, 50%, and 100% TSB as well as in TSB and MHB using E. coli ATCC 25922 and S. aureus USA300 LAC.
# E. coli ATCC 25922 = tested on: E. coli ATCC 25922
# Description: as §1, §2
Structure (SMILES),MIC (μM) KP [1] [µM],MIC (μM) PA (P. aeruginosa PAO1) [µM],HC50 [2] [µM],MIC (μM) SA (S. aureus USA300 LAC) [µM],MIC (μM) EC (E. coli ATCC 25922) [µM]
CCCCCCCCCCCC(=O)N[C@@H](CCCCN)C(=O)N[C@@H](CCCNC(=N)N)C(=O)N[C@H](C(=O)N[C@@H](Cc1c[nH]c2ccccc12)C(N)=O)[C@@H](C)CC [Peptide C12-KR4] (Lauroyl-KRIW-NH2),>50,6.2,30,3.1,12.5
CCCCCC(=O)N[C@@H](CCCCN)C(=O)N[C@@H](CCCNC(=N)N)C(=O)N[C@H](C(=O)N[C@@H](Cc1c[nH]c2ccccc12)C(=O)N[C@@H](CCC(N)=O)C(=O)N[C@@H](CCCNC(=N)N)C(=O)N[C@H](C(=O)N[C@@H](CCCCN)C(=O)N[C@@H](CC(=O)O)C(=O)N[C@@H](Cc1ccccc1)C(N)=O)[C@@H](C)CC)[C@@H](C)CC [Peptide C6-KR10] (Hexanoyl-KRIWQRIKDF-NH2),>50,50,>200,25,50
CCCCCC(=O)N[C@@H](CCCCN)C(=O)N[C@@H](CCCNC(=N)N)C(=O)N[C@H](C(=O)N[C@@H](Cc1c[nH]c2ccccc12)C(=O)N[C@@H](CCC(N)=O)C(=O)N[C@@H](CCCNC(=N)N)C(=O)N[C@H](C(=O)N[C@@H](CCCCN)C(N)=O)[C@@H](C)CC)[C@@H](C)CC [Peptide C6-KR8] (Hexanoyl-KRIWQRIK-NH2),>50,>50,>200,>50,>50
CCCCCC(=O)N[C@@H](CCCCN)C(=O)N[C@@H](CCCNC(=N)N)C(=O)N[C@H](C(=O)N[C@@H](Cc1c[nH]c2ccccc12)C(=O)N[C@@H](CCC(N)=O)C(=O)N[C@@H](CCCNC(=N)N)C(=O)N[C@H](C(=O)N[C@@H](CCCCN)C(=O)N[C@@H](CC(=O)O)C(=O)N[C@@H](Cc1ccccc1)C(=O)N[C@@H](CC(C)C)C(=O)N[C@@H](CCCNC(=N)N)C(N)=O)[C@@H](C)CC)[C@@H](C)CC [Peptide C6-KR12] (Hexanoyl-KRIWQRIKDFLR-NH2),6.2,12.5,25,<1.5,3.1
CCCCCCCCCCCC(=O)N[C@@H](CCCCN)C(=O)N[C@@H](CCCNC(=N)N)C(=O)N[C@H](C(=O)N[C@@H](Cc1c[nH]c2ccccc12)C(=O)N[C@@H](CCC(N)=O)C(=O)N[C@@H](CCCNC(=N)N)C(N)=O)[C@@H](C)CC [Peptide C12-KR6] (Lauroyl-KRIWQR-NH2),>50,6.2,75,3.1,12.5
CCCCCCCCCC(=O)N[C@@H](CCCCN)C(=O)N[C@@H](CCCNC(=N)N)C(=O)N[C@H](C(=O)N[C@@H](Cc1c[nH]c2ccccc12)C(=O)N[C@@H](CCC(N)=O)C(=O)N[C@@H](CCCNC(=N)N)C(=O)N[C@H](C(=O)N[C@@H](CCCCN)C(=O)N[C@@H](CC(=O)O)C(=O)N[C@@H](Cc1ccccc1)C(=O)N[C@@H](CC(C)C)C(=O)N[C@@H](CCCNC(=N)N)C(N)=O)[C@@H](C)CC)[C@@H](C)CC [Peptide C10-KR12] (Decanoyl-KRIWQRIKDFLR-NH2),6.2 to 12.5,25,<25,3.1,>50
CCCCCCCCCCCCCC(=O)N[C@@H](CCCCN)C(=O)N[C@@H](CCCNC(=N)N)C(=O)N[C@H](C(=O)N[C@@H](Cc1c[nH]c2ccccc12)C(=O)N[C@@H](CCC(N)=O)C(=O)N[C@@H](CCCNC(=N)N)C(=O)N[C@H](C(=O)N[C@@H](CCCCN)C(=O)N[C@@H](CC(=O)O)C(=O)N[C@@H](Cc1ccccc1)C(N)=O)[C@@H](C)CC)[C@@H](C)CC [Peptide C14-KR10] (Myristoyl-KRIWQRIKDF-NH2),6.2,12.5,<25,3.1,50
CCCCCCCCCC(=O)N[C@@H](CCCCN)C(=O)N[C@@H](CCCNC(=N)N)C(=O)N[C@H](C(=O)N[C@@H](Cc1c[nH]c2ccccc12)C(=O)N[C@@H](CCC(N)=O)C(=O)N[C@@H](CCCNC(=N)N)C(N)=O)[C@@H](C)CC [Peptide C10-KR6] (Decanoyl-KRIWQR-NH2),>50,25,>340,12.5,50
CCCCCC(=O)N[C@@H](CCCCN)C(=O)N[C@@H](CCCNC(=N)N)C(=O)N[C@H](C(=O)N[C@@H](Cc1c[nH]c2ccccc12)C(N)=O)[C@@H](C)CC [Peptide C6-KR4] (Hexanoyl-KRIW-NH2),>50,>50,>200,>50,>50
CCCCCC(=O)N[C@@H](CCCCN)C(=O)N[C@@H](CCCNC(=N)N)C(=O)N[C@H](C(=O)N[C@@H](Cc1c[nH]c2ccccc12)C(=O)N[C@@H](CCC(N)=O)C(=O)N[C@@H](CCCNC(=N)N)C(N)=O)[C@@H](C)CC [Peptide C6-KR6] (Hexanoyl-KRIWQR-NH2),>50,>50,>200,>50,>50
CCCCCCCCCCCCCC(=O)N[C@@H](CCCCN)C(=O)N[C@@H](CCCNC(=N)N)C(=O)N[C@H](C(=O)N[C@@H](Cc1c[nH]c2ccccc12)C(=O)N[C@@H](CCC(N)=O)C(=O)N[C@@H](CCCNC(=N)N)C(N)=O)[C@@H](C)CC [Peptide C14-KR6] (Myristoyl-KRIWQR-NH2),>50,6.2,<25,3.1,12.5
CCCCCCCC(=O)N[C@@H](CCCCN)C(=O)N[C@@H](CCCNC(=N)N)C(=O)N[C@H](C(=O)N[C@@H](Cc1c[nH]c2ccccc12)C(=O)N[C@@H](CCC(N)=O)C(=O)N[C@@H](CCCNC(=N)N)C(=O)N[C@H](C(=O)N[C@@H](CCCCN)C(N)=O)[C@@H](C)CC)[C@@H](C)CC [Peptide C8-KR8] (Octanoyl-KRIWQRIK-NH2),>50,12.5,>200,6.2,25
CCCCCCCCCC(=O)N[C@@H](CCCCN)C(=O)N[C@@H](CCCNC(=N)N)C(=O)N[C@H](C(=O)N[C@@H](Cc1c[nH]c2ccccc12)C(=O)N[C@@H](CCC(N)=O)C(=O)N[C@@H](CCCNC(=N)N)C(=O)N[C@H](C(=O)N[C@@H](CCCCN)C(=O)N[C@@H](CC(=O)O)C(=O)N[C@@H](Cc1ccccc1)C(N)=O)[C@@H](C)CC)[C@@H](C)CC [Peptide C10-KR10] (Decanoyl-KRIWQRIKDF-NH2),6.2,–,50,1.5,3.1
CCCCCCCCCCCC(=O)N[C@@H](CCCCN)C(=O)N[C@@H](CCCNC(=N)N)C(=O)N[C@H](C(=O)N[C@@H](Cc1c[nH]c2ccccc12)C(=O)N[C@@H](CCC(N)=O)C(=O)N[C@@H](CCCNC(=N)N)C(=O)N[C@H](C(=O)N[C@@H](CCCCN)C(=O)N[C@@H](CC(=O)O)C(=O)N[C@@H](Cc1ccccc1)C(N)=O)[C@@H](C)CC)[C@@H](C)CC [Peptide C12-KR10] (Lauroyl-KRIWQRIKDF-NH2),3.1,–,<25,1.5,6.2

# Source: patent publication US20240294572A1, “Antimicrobial Peptides” (priority 2021, published 2024)
